Among the data in PubChem BioAssay (NCI) are TGI and GI50 values, retold here.

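Protocol summary: plate cells (96-well), add compound at 5 concentrations, incubate 48 h, interpolate endpoints linearly. Here, GI50 denotes the concentration required for 50% inhibition of growth. TGI denotes the concentration required for complete inhibition of growth.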 Where only a bound is given, the exact number is not on record here.

The test system of one assay is SNB-75 CNS. The experiment in a line: DTP human tumour cell line panel, 48 h.
`Cc1ccc(C(=O)N/N=C(\N=Nc2cccc([N+](=O)[O-])c2)c2ccc(N(CCC#N)CCC#N)cc2C)cc1` gave a TGI of 74.1 µM.
Still for that read-out and setting: the value for `O=C(O)c1c2c(cc3c1CC(Cc1ccccc1)C3=O)CCC2` (centres undefined) was more than 100 µM.
The same measure, in the same setting: with `OC(CC1CCCCN1)c1ccc2c(c1)oc1ccccc12` (centres undefined) the figure was more than 100 µM.
Molecule `O=C1OC(CCCN2CCCCC2)(c2ccccc2)CC12CCCC2` (centres undefined) registered a TGI of more than 100 µM.
Molecule `COC(=O)[C@@H]1C=C[C@H](OC2OC(COC(C)=O)C(OC(C)=O)C(OC(C)=O)C2OC(C)=O)n2c(=O)n(-c3ccccc3)c(=O)n21` (some centres undefined) had a TGI of 13 µM.
The same measure, in the same setting: with `CSc1c(C(=O)Nc2ccccc2)c(N)n(N)c(=O)c1C#N` the figure was more than 100 µM; with `C=CCn1c(N)c(C#N)c(C#N)c1CCC`, more than 100 µM.
`CC(C)(C)C1CCC(=O)/C(=C/CC2CC(=O)N(c3ccccc3)C(=O)C2)C1` (centres undefined) registered a TGI of 53.3 µM.
`COC(=O)C1=C(OC(=O)/C(=C/c2ccccc2)c2ccc(Cl)cc2Cl)C(C(=O)OC)[C@@]2(O)[C@@H](C(=O)OC)[C@H](C)C[C@@H]1[C@@H]2C(=O)OC` (some centres undefined) returned a TGI of more than 100 µM.
On the same count and under the same terms, the value for `CS(=O)(=O)C(C#N)c1nc2ccccc2nc1Cl` (centres undefined) was more than 100 µM; that for `Cc1cc(C)nc(NS(=O)(=O)c2ccc(Nc3c4ccccc4nc4ccc(C(=O)Nc5ccc(S(N)(=O)=O)cc5)cc34)cc2)n1` was more than 100 µM.
The molecule `CCOC(=O)/C=C(\C(=O)OCC)n1cc(C)c(=O)n(Cc2cn(CCCCOC(C)=O)nn2)c1=O` came in with a TGI of 30.3 µM.

A further assay concerns SR leukemia. The experiment in a line: DTP human tumour cell line panel, 48 h.
Take `Cc1ccc(C(=O)N/N=C(\N=Nc2cccc([N+](=O)[O-])c2)c2ccc(N(CCC#N)CCC#N)cc2C)cc1`: the TGI is more than 100 µM.
Same read-out and setting: with `O=C(O)c1c2c(cc3c1CC(Cc1ccccc1)C3=O)CCC2` (centres undefined) the figure was more than 100 µM; with `OC(CC1CCCCN1)c1ccc2c(c1)oc1ccccc12` (centres undefined), more than 100 µM.
Molecule `O=C1OC(CCCN2CCCCC2)(c2ccccc2)CC12CCCC2` (centres undefined) returned a TGI of more than 100 µM.
Same read-out and setting: the value for `COC(=O)[C@@H]1C=C[C@H](OC2OC(COC(C)=O)C(OC(C)=O)C(OC(C)=O)C2OC(C)=O)n2c(=O)n(-c3ccccc3)c(=O)n21` (some centres undefined) was more than 24.9 µM; that for `CSc1c(C(=O)Nc2ccccc2)c(N)n(N)c(=O)c1C#N` was more than 100 µM; that for `C=CCn1c(N)c(C#N)c(C#N)c1CCC` was more than 100 µM.
On the same count and under the same terms, the value for `CC(C)(C)C1CCC(=O)/C(=C/CC2CC(=O)N(c3ccccc3)C(=O)C2)C1` (centres undefined) was 41.5 µM; that for `COC(=O)C1=C(OC(=O)/C(=C/c2ccccc2)c2ccc(Cl)cc2Cl)C(C(=O)OC)[C@@]2(O)[C@@H](C(=O)OC)[C@H](C)C[C@@H]1[C@@H]2C(=O)OC` (some centres undefined) was more than 100 µM.
Still for that read-out and setting: with `CS(=O)(=O)C(C#N)c1nc2ccccc2nc1Cl` (centres undefined) the figure was more than 100 µM; with `Cc1cc(C)nc(NS(=O)(=O)c2ccc(Nc3c4ccccc4nc4ccc(C(=O)Nc5ccc(S(N)(=O)=O)cc5)cc34)cc2)n1`, more than 100 µM.
Regarding `CCOC(=O)/C=C(\C(=O)OCC)n1cc(C)c(=O)n(Cc2cn(CCCCOC(C)=O)nn2)c1=O`, the TGI came to 14.5 µM.

In the next assay the test system is SW-620 colon. The experiment in a line: DTP human tumour cell line panel, 48 h.
As to `Cc1ccc(C(=O)N/N=C(\N=Nc2cccc([N+](=O)[O-])c2)c2ccc(N(CCC#N)CCC#N)cc2C)cc1`, the TGI is more than 100 µM.
On to `O=C(O)c1c2c(cc3c1CC(Cc1ccccc1)C3=O)CCC2` (centres undefined), for which the TGI is more than 100 µM.
In turn, `OC(CC1CCCCN1)c1ccc2c(c1)oc1ccccc12` (centres undefined) yielded a TGI of more than 100 µM.
Same read-out and setting: the value for `O=C1OC(CCCN2CCCCC2)(c2ccccc2)CC12CCCC2` (centres undefined) was more than 100 µM; that for `COC(=O)[C@@H]1C=C[C@H](OC2OC(COC(C)=O)C(OC(C)=O)C(OC(C)=O)C2OC(C)=O)n2c(=O)n(-c3ccccc3)c(=O)n21` (some centres undefined) was 3.41 µM.
Molecule `CSc1c(C(=O)Nc2ccccc2)c(N)n(N)c(=O)c1C#N` gave a TGI of more than 100 µM.
In turn, `C=CCn1c(N)c(C#N)c(C#N)c1CCC` displayed a TGI of more than 100 µM.
`CC(C)(C)C1CCC(=O)/C(=C/CC2CC(=O)N(c3ccccc3)C(=O)C2)C1` (centres undefined) showed a TGI of 53.5 µM.
Still for that read-out and setting: with `COC(=O)C1=C(OC(=O)/C(=C/c2ccccc2)c2ccc(Cl)cc2Cl)C(C(=O)OC)[C@@]2(O)[C@@H](C(=O)OC)[C@H](C)C[C@@H]1[C@@H]2C(=O)OC` (some centres undefined) the figure was more than 100 µM; with `CS(=O)(=O)C(C#N)c1nc2ccccc2nc1Cl` (centres undefined), more than 100 µM; with `Cc1cc(C)nc(NS(=O)(=O)c2ccc(Nc3c4ccccc4nc4ccc(C(=O)Nc5ccc(S(N)(=O)=O)cc5)cc34)cc2)n1`, more than 100 µM.
In the case of `CCOC(=O)/C=C(\C(=O)OCC)n1cc(C)c(=O)n(Cc2cn(CCCCOC(C)=O)nn2)c1=O`, the GI50 was 5 µM and the TGI turned out to be 31.8 µM.

For a further assay, the system named is UACC-257 melanoma. Kind of assay: DTP human tumour cell line panel, 48 h.
Molecule `Cc1ccc(C(=O)N/N=C(\N=Nc2cccc([N+](=O)[O-])c2)c2ccc(N(CCC#N)CCC#N)cc2C)cc1` displayed a TGI of 52.7 µM.
In turn, `O=C(O)c1c2c(cc3c1CC(Cc1ccccc1)C3=O)CCC2` (centres undefined) displayed a TGI of more than 100 µM.
`OC(CC1CCCCN1)c1ccc2c(c1)oc1ccccc12` (centres undefined) had a TGI of more than 100 µM.
The same measure, in the same setting: the value for `O=C1OC(CCCN2CCCCC2)(c2ccccc2)CC12CCCC2` (centres undefined) was 48.7 µM; that for `COC(=O)[C@@H]1C=C[C@H](OC2OC(COC(C)=O)C(OC(C)=O)C(OC(C)=O)C2OC(C)=O)n2c(=O)n(-c3ccccc3)c(=O)n21` (some centres undefined) was 5.07 µM.
On the same count and under the same terms, the value for `CSc1c(C(=O)Nc2ccccc2)c(N)n(N)c(=O)c1C#N` was more than 100 µM; that for `C=CCn1c(N)c(C#N)c(C#N)c1CCC` was more than 100 µM; that for `CC(C)(C)C1CCC(=O)/C(=C/CC2CC(=O)N(c3ccccc3)C(=O)C2)C1` (centres undefined) was 28.2 µM.
Molecule `COC(=O)C1=C(OC(=O)/C(=C/c2ccccc2)c2ccc(Cl)cc2Cl)C(C(=O)OC)[C@@]2(O)[C@@H](C(=O)OC)[C@H](C)C[C@@H]1[C@@H]2C(=O)OC` (some centres undefined) returned a TGI of more than 100 µM.
The same measure, in the same setting: with `CS(=O)(=O)C(C#N)c1nc2ccccc2nc1Cl` (centres undefined) the figure was more than 100 µM.
On the same count and under the same terms, with `Cc1cc(C)nc(NS(=O)(=O)c2ccc(Nc3c4ccccc4nc4ccc(C(=O)Nc5ccc(S(N)(=O)=O)cc5)cc34)cc2)n1` the figure was more than 100 µM; with `CCOC(=O)/C=C(\C(=O)OCC)n1cc(C)c(=O)n(Cc2cn(CCCCOC(C)=O)nn2)c1=O`, 30.5 µM.
